The test system of test [1] is human peripheral blood monocyte-derived immature DC (iDC). The test can be described thus: Activation of human immature dendritic cells, surface markers by flow cytometry. It counts as cell-based. Conditions: 24 h, 10 μg/ml lipid; for mean fold increase in CD86 levels above levels associated with untreated iDC: six individual donors.
In test [2] the test system is IFN-γ release by PBMC upon restimulation with antigen. Briefly: IFN-γ release by lymphocytes of mice immunised with Ag85B-ESAT-6 in adjuvant. The test is classed as in vivo, C57BL/6 mice. The following applies: for immune response (IFN-γ release by PBMC) in the blood one week after the last vaccination: Ag85B-ESAT-6 in DDA, 10 μg MMG or analogue.
In test [3] the test system is human peripheral blood monocyte-derived immature DC (iDC). It counts as cell-based. Conditions: 24 h, 10 μg/ml lipid, ELISA, Tukey test. In general terms: An ELISA detects its analyte on a solid surface through an enzyme-linked reagent.
The mark [4] stands for this setting: 10 μg lipid in 250 μg DDA liposomes with 2 μg Ag85B-ESAT-6, s.c.

As for phenolic glycolipid [PGL], in test [1], the “DC activation, upregulation of CD86, CD40 and HLA-DR (rank among purified apolar lipids)” value (“DC activation, upregulation of CD86” below) is given as “induced less activation”; the “mean fold increase in CD86 levels above levels associated with untreated iDC” value (shortened to “mean fold increase”) is recorded as 1.52±0.26 fold. Moreover, the “IFN-γ production, draining lymph node (in words)” value (“IFN-γ production” for short) in test [2] (setting [4]) is listed as “very little IFN-γ release”.
For `CCCCCCCCCCCCCCCCCC(O)C(CCCCCCCCCCCCCCCC)C(=O)OCC(O)CO` (centres unmarked) [synthetic MMG analogue with 36 carbons, 3-hydroxy-2-hexadecylicosanoic acid-2,3-dihydroxypropyl ester], in test [2], the “immune response (IFN-γ release by PBMC) in the blood one week after the last vaccination” value (“immune response (IFN-γ release by PBMC)” for short) is listed as “comparable levels of responses”.
For `CCCCCCCC(O)C(CCCCCC)C(=O)OCC(O)CO` (centres unmarked) [synthetic MMG analogue with 16 carbons, 3-hydroxy-2-hexyl-decanoic acid-2,3-dihydroxypropyl ester], the “immune response (IFN-γ release by PBMC)” value in test [2] was “comparable levels of responses”.
Still for that read-out and setting: the result for `CCCCCCCCCCCCCCCCCC[N+](C)(C)CCCCCCCCCCCCCCCCCC.[Br-]` [DDA, dimethyldioctadecylammonium] reads “lower effect”.
Turning to phthiocerol dimycocerosate A [PDIM A], in test [1], the “DC activation, upregulation of CD86” value is listed as “second most active lipid”; the “mean fold increase” value stood at 1.82±0.43 fold. In addition, the “IFN-γ production” value in test [2] (setting [4]) is “albeit to a lower level”.
Turning to monomycolyl glycerol [MMG], in test [1], the “DC activation, upregulation of CD86” value is “most potent inducer of DC activation”; the “mean fold increase” value was 1.91±0.29 fold. For the same compound, the “IL-6 release by DC” value in test [3] is reported as “significantly greater levels”. The “IFN-γ levels upon restimulation of PBMC isolated from the draining lymph node” value in test [2] (setting [4]) is 10 ng/mL. In addition, the “immune response (IFN-γ release by PBMC)” value in test [2] was “comparable levels of responses”.
For the compound triacyl glycerols [TAGs], in test [1], the “DC activation, upregulation of CD86” value was “induced less activation”; the “mean fold increase” value stood at 1.32±0.14 fold. The “IFN-γ production” value in test [2] (setting [4]) was “very little IFN-γ release”.
